Assays:
Experiment in all cases: relative viability (nuclei count vs DMSO), 5 days (fraction); higher = more cells survive
[1] = compound: CC1=C(CC(=O)O)c2cc(F)ccc2/C1=C\c1ccc([S+](C)[O-])cc1 [Sulindac] + CS(=O)(=O)N1CCN(Cc2cc3nc(-c4cccc5[nH]ncc45)nc(N4CCOCC4)c3s2)CC1 [Pictilisib] (partner 1 µM)
Summary of the method: (§1)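 For relative viability, nuclei counts in treated wells were divided by those in vehicle wells. Lung cancer cell lines had been pin-tool dosed in 1536-well plates the day after seeding and cultured for 5 days, then fixed and stained in one step (final 0.05% Triton X-100, 1% formaldehyde, 1 ug/ml Hoechst) and imaged at 4×. Doses were one drug alone or a fixed anchor-drug dose plus five library-drug doses (not always all listed) in √10 steps, and values are duplicate-plate medians.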

[2] = compound: CN[C@@H]1C[C@H]2O[C@@](C)([C@@H]1OC)n1c3ccccc3c3c4c(c5c6ccccc6n2c5c31)C(=O)NC4 [Staurosporine] + N=C(N)NC(=N)NCCc1ccccc1 [Phenformin] (partner 250 µM)
Summary of the method: as §1

[3] = compound: CN[C@@H]1C[C@H]2O[C@@](C)([C@@H]1OC)n1c3ccccc3c3c4c(c5c6ccccc6n2c5c31)C(=O)NC4 [Staurosporine] + O=C(c1cc(Cc2n[nH]c(=O)c3ccccc23)ccc1F)N1CCN(C(=O)C2CC2)CC1 [Olaparib] (partner 8 µM)
Summary of the method: as §1

[4] = compound: O=c1[nH]cc(F)c(=O)[nH]1 [5-Fluorouracil] + C[C@@H](Oc1cc(-c2cnn(C3CCNCC3)c2)cnc1N)c1c(Cl)ccc(F)c1Cl [Crizotinib] (partner 1 µM)
Summary of the method: as §1

Row | Cell Line | relative viability ([1]; first compound 0.08 µM) | relative viability ([1]; first compound 0.253 µM) | relative viability ([1]; first compound 0.8 µM) | relative viability ([1]; first compound 2.53 µM) | relative viability ([1]; first compound 8 µM) | relative viability ([2]; first compound 0.005 µM) | relative viability ([2]; first compound 0.05 µM) | relative viability ([2]; first compound 0.1581 µM) | relative viability ([2]; first compound 0.5 µM) | relative viability ([3]; first compound 0.005 µM) | relative viability ([3]; first compound 0.05 µM) | relative viability ([3]; first compound 0.1581 µM) | relative viability ([3]; first compound 0.5 µM) | relative viability ([4]; first compound 0.02 µM) | relative viability ([4]; first compound 0.2 µM) | relative viability ([4]; first compound 0.6325 µM) | relative viability ([4]; first compound 2 µM) | relative viability ([2]; first compound 0.01581 µM) | relative viability ([3]; first compound 0.01581 µM)
1 | 201T | 0.737 | 0.665 | 0.627 | 0.678 | 0.698 | 0.422 | 0.343 | 0.266 | 0.198 | 0.834 | 0.749 | 0.581 | 0.537 | 1.02 | 0.948 | 0.384 | 0.287 |  | 
2 | A549 | 0.573 | 0.528 | 0.327 | 0.467 | 0.857 | 0.127 | 0.0465 | 0.031 | 0.0233 | 0.0788 | 0.126 | 0.034 | 0.0268 | 0.783 | 0.517 | 0.295 | 0.107 | 0.025 | 0.0424
3 | A-427 | 0.84 | 0.507 | 0.625 | 0.805 | 0.717 | 0.189 | 0.109 | 0.0973 | 0.123 | 0.694 | 0.284 | 0.189 | 0.139 | 0.799 | 0.965 | 0.77 | 0.378 | 0.114 | 0.482
4 | ABC-1 | 0.987 | 0.849 | 0.539 | 0.542 | 0.979 | 0.169 | 0.0951 | 0.0728 | 0.105 | 0.429 | 0.564 | 0.211 | 0.213 | 1.17 | 1.05 | 0.967 | 0.871 | 0.205 | 0.289
5 | BEN | 0.599 | 0.56 | 0.443 | 0.673 | 0.667 | 0.247 | 0.211 | 0.197 | 0.184 | 0.976 | 0.641 | 0.514 | 0.362 | 1.02 | 0.719 | 0.615 | 0.718 |  | 0.799
6 | CAL-12T | 0.442 | 0.374 | 0.401 | 0.324 | 0.616 | 0.205 | 0.235 | 0.103 | 0.112 | 0.441 | 0.252 | 0.148 | 0.163 | 0.802 | 0.592 | 0.444 | 0.312 | 0.165 | 0.253
7 | COR-L23 | 0.987 | 0.933 |  | 0.727 | 1.07 | 0.243 | 0.14 | 0.0737 | 0.0585 | 0.216 | 0.164 | 0.141 | 0.0662 | 0.789 | 0.556 | 0.478 | 0.148 | 0.18 | 0.189
8 | COR-L 105 | 0.392 | 0.36 | 0.36 | 0.338 | 0.489 | 0.312 | 0.176 | 0.207 | 0.181 | 0.562 | 0.326 | 0.386 | 0.26 | 0.852 | 0.806 | 0.647 | 0.453 | 0.217 | 0.401
9 | Calu-6 | 1.03 | 0.989 | 0.799 | 0.949 | 1.17 |  |  |  |  | 0.483 | 0.201 | 0.106 | 0.092 | 0.872 | 0.859 | 0.693 | 0.427 |  | 0.294
10 | ChaGo-K-1 | 0.808 | 0.645 | 0.74 | 0.647 | 1.45 | 0.461 | 0.351 | 0.158 | 0.123 | 0.43 | 0.342 | 0.232 | 0.243 | 1.15 | 1.06 | 0.821 | 0.711 | 0.233 | 
11 | EBC-1 | 0.382 | 0.422 | 0.343 | 0.342 | 0.49 |  |  |  |  | 0.485 | 0.165 | 0.159 | 0.149 | 0.177 | 0.214 | 0.206 | 0.202 |  | 0.184
12 | EKVX | 0.409 | 0.487 | 0.381 | 0.475 | 0.516 | 0.172 | 0.159 | 0.142 | 0.118 | 0.562 | 0.272 | 0.216 | 0.13 | 0.842 |  | 0.181 |  | 0.119 | 0.392
13 | EMC-BAC-2 | 0.524 | 0.58 | 0.485 | 0.542 | 0.596 | 0.252 | 0.17 | 0.189 | 0.164 | 0.245 | 0.172 | 0.177 | 0.19 | 0.871 | 0.788 | 0.764 | 0.767 | 0.179 | 0.162
14 | EPLC-272H | 0.293 |  | 0.252 | 0.284 | 0.361 | 0.22 | 0.0721 | 0.0546 | 0.0603 | 0.41 | 0.139 | 0.0846 | 0.0704 | 0.841 | 0.614 | 0.346 | 0.228 | 0.0782 | 0.148
15 | H3255 | 0.486 | 0.463 | 0.464 | 0.562 | 0.524 | 0.326 | 0.249 | 0.181 | 0.14 | 0.447 | 0.28 | 0.24 | 0.155 | 0.835 | 0.846 | 0.831 | 0.561 | 0.28 | 0.315
16 | HARA | 0.302 | 0.507 |  | 0.374 | 0.452 | 0.374 | 0.211 | 0.133 | 0.0495 | 0.682 | 0.156 | 0.126 | 0.131 | 1.4 | 1.04 | 1.06 | 1.08 |  | 0.363
17 | HCC-15 | 0.861 | 0.817 | 0.526 | 0.735 | 0.814 | 0.344 | 0.19 | 0.112 | 0.0964 | 0.613 | 0.532 | 0.286 | 0.205 | 0.867 | 0.782 | 0.499 | 0.269 |  | 
18 | HCC-44 | 0.403 | 0.562 | 0.537 | 0.687 | 0.589 | 0.104 | 0.0757 | 0.0829 | 0.0953 | 1.04 | 0.75 | 0.456 | 0.351 | 0.848 | 0.768 | 0.578 | 0.324 | 0.0863 | 

Reference: the supplement of paper PMC10307832
